Each structure is given as a SMILES string.

Data on five molecules can be found in patent publication US7098245B2, “Polynucleotide cleavage agent switched on by photo irradiation” (Tottori University, priority 2002, dated 2006).

In one series the test system is supercoiled φX-174 DNA. The series can be described thus: DNA cleavage test under photo-irradiation (Xe lamp with polystylene filter, 2 hrs). The series is classed as biochemical. The protocol:
(§1) DNA cleavage test using (S,S)—NH2-mono under photo-irradiation φX174 RFI DNA (New England BioLabs, N3021S, 150 ┌M) (1 ┌L) was dissolved in a 10 mM sodium phosphate buffer pH 7.0 (9 ┌L) in a micro tube.
(§2) Ethyl 9-anthracene carboxylate (anth-OEt) was used as a control compound. Three samples were prepared: a buffer solution of DNA, a mixture of anth-OEt with a buffer solution of DNA, and a mixture of (S,S)—NH2-mono with a buffer solution of DNA. These samples were placed under a UV-A lamp (max=365 nm, trans illuminator) at a distance of 4 cm, and irradiated for 3 h. The resulting mixture was subjected to an electrophoresis experiment ([…], TAE buffer, 100 V, 30 min). The resulting agarose gel was stained with ethidium bromide (EtBr), visualized by UV-B lamp and the DNA cleavage ratio was determined by NIH Image 1.62.
The test was carried out using (R,R)— and (S,S)—NH2-mono in the same manner as described in Example 2 except that the test samples were placed under a Xe lamp with a polystylene filter at a distance of 3 cm and irradiated for 2 hrs.

Series [1] can be described thus: Stability of the compound (sunlight in solution; after deprotection). The series is classed as physicochemical. The protocol:
Part G. A solution of ester 5 (14.6 mg, 0.0307 mmol) in methanol (0.3 mL) was stirred at rt in the presence of Pd/C (3.0 mg, 20 wt %) under H2 (1 atm) for 15 h in the dark. The crude products were filtered through a sintered glass filter with a Celite pad, and the filtrate was dried under vacuo to afford the title compound (S,S)—NH2-mono(9.2 mg, 0.027 mmol) in 88% yield. This compound was unstable when dissolved in methanol or CHCl3 under the irradiation of sunlight; therefore, it should be kept under an argon atmosphere in a dark place.
The reaction was carried out in a flask that was covered by aluminum foil to keep out light. A solution of (R,R)-10 (18 mg, 0.038 mmol) in methanol (1.0 mL) was stirred at rt in the presence of Pd/C (5.4 mg, 30 wt %) under H2 (1 atom) for 5 days and filtered though a glass sintered glass filter with a Celite pad. The filtrate was evaporated under reduced pressure to give (R,R)—NH2-mono (9.9 mg, […]). This compound was unstable when dissolved in methanol or CHCl3 under the irradiation of sunlight; therefore, it should be kept under an argon atmosphere in a dark place.

Another series concerns φX174 RFI DNA. The series can be described thus: DNA cleavage test under photo-irradiation (UV-A lamp 365 nm, 3 h), agarose gel electrophoresis. The series is classed as biochemical. As to conditions: 4 cm, 10 mM sodium phosphate pH 7.0, samples 1, 5, 12 mM, 1 ┌L. On the procedure: as §1, §2
The increased ratio of nicked DNA means that DNA was cleaved by the experimental conditions.

Another series concerns supercoiled φX174 DNA. The series is described as follows: DNA cleavage test using (R,R)- and (S,S)-11 (Xe lamp, 45 min). The series is classed as biochemical. On the procedure: The reaction was carried out in a solvent of 20 mM sodium phosphate of pH 7.0 and 20% DMSO. Samples were irradiated for 45 min at a distance of 6 cm using Xe lamp using polystylene filter. Electrophoresis (0.8% agarose gel, TAE buffer, 100 V, 40 min). Gel was stained by EtBr and visualized by UV-B lamp (transillumnator).

A further series concerns DNA. As to conditions: background, symposium report 2001; cited from earlier work.
[2] abbreviates: Xe lamp, polystylene filter, 3 cm, 2 hrs.

Consider `NC[C@H]1[C@H](COC(=O)c2c3ccccc3cc3ccccc23)C1(F)F` [(R,R)—NH2-mono, (R,R)-3-aminomethyl-2,2-difluoro-cyclopropylmethyl anthracene-9-carboxylate], for which the “DNA cleavage strength relative to the (S,S)-isomer” value in the series on supercoiled φX-174 DNA (Xe lamp, 2 hrs) is listed as “more than 10 times”. Moreover, in the series on supercoiled φX-174 DNA (setting [2]), the concentration required to convert supercoiled DNA to the nicked type DNA stood at 85.5 µM and the “equivalent versus supercoiled φX-174 DNA at the required concentration” value is on record as 0.667 equivalent. Also, the “activity relative to the corresponding (S,S)-isomer (description)” value in the series on supercoiled φX-174 DNA (stated in detailed description) was “five times stronger activity”. In series [1], the “stability after deprotection of the amino protecting group” value is given as “unstable” and the “stability when dissolved in methanol or CHCl3 under irradiation of sunlight” value is listed as “unstable”.

Consider `CCOC(=O)c1c2ccccc2cc2ccccc12` [anth-OEt, Ethyl 9-anthracene carboxylate, reference compound], for which, in the series on φX174 RFI DNA, the DNA cleavage activity entry is listed as “no significant activity”.

For `O=C(NC[C@H]1[C@H](CO)C1(F)F)c1c2ccccc2cc2ccccc12` [(R,R)-11, (R,R)-2,2-difluoro-3-hydroxymethyl-cyclopropylmethyl anthracene-9-carboxamide], the “equivalent versus the DNA base pair at that concentration” value in the series on supercoiled φX174 DNA (20 mM sodium phosphate pH 7.0, 20% DMSO) worked out at 1.3 equivalent. Also, the “concentration at which supercoiled DNA was converted to the nicked form” value with supercoiled φX174 DNA (20 mM sodium phosphate pH 7.0, 20% DMSO, 6 cm) was found to be 100 µM. Besides, the “DNA cleavage activity (qualitative)” value in the series on supercoiled φX174 DNA (FIG. 5) was “strong DNA cleavage activity”.

For the molecule `O=C(OCC1C(COC(=O)c2c3ccccc3cc3ccccc23)C1(F)F)c1c2ccccc2cc2ccccc12` (stereo not drawn) [9-anthracene carboxylic diester of 1,3-bishydroxymethyl-2,2-difluoro-cyclopropane], the DNA cleavage activity result in the series with DNA was “no significant DNA cleavage activity”.

Consider `NC[C@@H]1[C@@H](COC(=O)c2c3ccccc3cc3ccccc23)C1(F)F` [(S,S)—NH2-mono, (S,S)-3-aminomethyl-2,2-difluoro-cyclopropylmethyl anthracene-9-carboxylate], for which the concentration required to convert supercoiled DNA to the nicked type DNA with supercoiled φX-174 DNA (setting [2]) is 1200 µM. Further, the DNA cleavage activity result in the series with φX174 RFI DNA is reported as “weak DNA cleavage agent”. Moreover, in series [1], the “stability after deprotection of the amino protecting group” value is recorded as “unstable” and the “stability when dissolved in methanol or CHCl3 under irradiation of sunlight” value is recorded as “unstable”.
